Literature values, collected in patent US11478445B2, “Method for treating acute myeloid leukemia” (Bionomics Limited, priority 2017, dated 2022).

Tests used:
KG1 cells [1] = details: Petit et al. 2008; cited from earlier work
KG1 cells [2] = details: Petit et al. 2008, Madlambayan et al. 2010; cited from earlier work

| SMILES | cell cycle (KG1 cells [1]) | total ROS levels (KG1 cells [2]) |
| --- | --- | --- |
| COc1ccc(/C=C\c2cc(OC)c(OC)c(OC)c2)cc1OP(=O)(O)O [combretastatin-A4-P] | induces G2/M cell cycle arrest | increase in total ROS levels |
| COc1ccc(/C=C\c2cc(OC)c(OC)c(OC)c2)c(O)c1O [OXi4500, combretastatin-A1] | – | increase in total ROS levels |
